Read-outs that look alike come from different tables or passages of the source.
Legend:
[1] = system: EBP (zymostenol accumulation in EpiSC-derived OPCs); experiment: GC/MS-based sterol profiling, zymostenol accumulation in OPCs; format: cell-based, mouse; settings: EpiSC-derived OPCs, 24 hr treatment, 8 doses from 0.15 nM to 333 nM, read-out: Zymostenol GCMS EC50
Summary of the method: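 EpiSC-derived OPCs (100,000/well) were treated 24 h in N2B27 without growth factors. Sterols were TMS-derivatized and analysed by GC/MS full-scan EI, quantified against cholesterol-d7. Zymostenol was normalized to the level after 24 h with 100 nM positive control reference.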

[2] = target: human EBP (Homo sapiens (Human), UniProt Q15125); experiment: Competition binding assay (SPA, [3H]-Ifenprodil) to determine compound affinity to EBP; settings: [3H]-Ifenprodil 10 nM, HEK293 membrane overexpressing human EBP, Ki=IC50/(1+[L]/Kd); read-out: hEBP SPA Ki
human EBP, sequence (Q15125 whole entry): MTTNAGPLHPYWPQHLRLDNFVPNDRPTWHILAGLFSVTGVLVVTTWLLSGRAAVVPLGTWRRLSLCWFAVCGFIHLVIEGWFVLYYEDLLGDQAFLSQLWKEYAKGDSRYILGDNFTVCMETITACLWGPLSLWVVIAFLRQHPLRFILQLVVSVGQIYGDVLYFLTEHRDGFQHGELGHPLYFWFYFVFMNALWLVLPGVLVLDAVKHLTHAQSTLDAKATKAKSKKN
Summary of the method: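 Membranes from HEK293 cells overexpressing human EBP, on SPA beads (0.3 mg beads, 5 µg membrane/well) in Tris/MgCl2/EDTA buffer pH 7.5 with 0.01% BSA and 0.1% DMSO, competed against [3H]-ifenprodil for 3 h to equilibrium. Compounds were tested at 1 µM single dose or 0.06 nM–5 µM; IC50 came from nonlinear fit, and Ki=IC50/(1+[L]/Kd).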

Row | Compound | EC50 ([1]; Mus musculus, 24 h) [nM] | Ki [2] [nM] | EC50 [1] [nM]
1 | CC(C)n1cc(C(F)(F)F)nc1[C@@H]1CC[C@H](N2CCC3(C2)CS(=O)(=O)C3)C1 (single isomer, unassigned) [20D*] | 38 | 98 | 
2 | CC(C)n1nc(C2CC2)nc1[C@H]1CC[C@@H](N2CCC3(C2)CS(=O)(=O)C3)C1 (single isomer, unassigned) [18D*, 6-(3-(3-cyclopropyl-1-isopropyl-1H-1,2,4-triazol-5-yl)cyclopentyl)-2-thia-6-azaspiro[3.4]octane 2,2-dioxide] | 120 | 270 | 
3 | CC(C)n1nc(N2CC(F)(F)C2)cc1[C@H]1CC[C@H](N2CCC3(C2)CS(=O)(=O)C3)CC1 [Compound 35, 6-((1r,4r)-4-(3-(3,3-Difluoroazetidin-1-yl)-1-isopropyl-1H-pyrazol-5-yl)cyclohexyl)-2-thia-6-azaspiro[3.4]octane 2,2-dioxide] | 45 | 180 | 
4 | O=S1(=O)CC2(CCN(C3CCN(c4ncc(C(F)(F)F)cc4F)CC3)C2)C1 [Compound 32, 6-(1-(3-fluoro-5-(trifluoromethyl)pyridin-2-yl)piperidin-4-yl)-2-thia-6-azaspiro[3.4]octane 2,2-dioxide] | 7 | 24 | 
5 | Cc1nc(C(F)(F)F)ccc1N1CCC(N2CCC3(C2)CS(=O)(=O)C3)CC1 [Compound 29, 6-(1-(2-methyl-6-(trifluoromethyl)pyridin-3-yl)piperidin-4-yl)-2-thia-6-azaspiro[3.4]octane 2,2-dioxide] | 7.1 | 45 | 
6 | CCn1nc(-c2ccc(C(F)(F)F)nc2)nc1[C@H]1CC[C@H](N2CCC3(C2)CS(=O)(=O)C3)CC1 [36A*, 6-((1r,4r)-4-(1-Ethyl-3-(6-(trifluoromethyl)pyridin-3-yl)-1H-1,2,4-triazol-5-yl)cyclohexyl)-2-thia-6-azaspiro[3.4]octane 2,2-dioxide] | 8.6 | 40 | 
7 | CC(C)n1nc(-c2ccc(C(F)(F)F)nc2)nc1[C@H]1CC[C@H](N2CCC3(C2)CS(=O)(=O)C3)C1 (single isomer, unassigned) [17B*] | 4 | 31 | 
8 | CCn1nc(-c2ccc(C(F)(F)F)nc2)nc1[C@H]1CC[C@@H](N2CCC3(C2)CS(=O)(=O)C3)CC1 [36B*, 6-((1s,4s)-4-(1-ethyl-3-(6-(trifluoromethyl)pyridin-3-yl)-1H-1,2,4-triazol-5-yl)cyclohexyl)-2-thia-6-azaspiro[3.4]octane 2,2-dioxide] | 23 | 57 | 
9 | Cn1nc(C(F)(F)F)cc1[C@H]1CC[C@H](N2CC[C@@]3(CCS(=O)(=O)C3)C2)CC1 (single isomer, unassigned) [38D*] |  | 27 | 40
10 | O=S1(=O)CC2(CCN([C@H]3CC[C@@H](c4cc(C(F)(F)F)nn4C4CC4)CC3)C2)C1 [Compound 12B, 6-((1s,4s)-4-(1-Cyclopropyl-3-(trifluoromethyl)-1H-pyrazol-5-yl)cyclohexyl)-2-thia-6-azaspiro[3.4]octane 2,2-dioxide] | 23 | 29 | 
11 | CC(C)n1nc(C(F)(F)F)cc1[C@H]1CC[C@H](N2CCC3(C2)CS(=O)(=O)C3)CC1 [Compound 8A, 6-((1r,4r)-4-(1-isopropyl-3-(trifluoromethyl)-1H-pyrazol-5-yl)cyclohexyl)-2-thia-6-azaspiro[3.4]octane 2,2-dioxide] | 14 | 16 | 
12 | O=S1(=O)CC2(CCN([C@H]3CC[C@H](c4ccc(C(F)(F)F)cc4)CC3)C2)C1 [Compound 3A, 6-((1r,4r)-4-(4-(trifluoromethyl)phenyl)cyclohexyl)-2-thia-6-azaspiro[3.4]octane 2,2-dioxide] | 2.1 | 20 | 
13 | Cc1cc(F)cnc1N1CCC(N2CCC3(C2)CS(=O)(=O)C3)CC1 [Compound 31, 6-(1-(5-fluoro-3-methylpyridin-2-yl)piperidin-4-yl)-2-thia-6-azaspiro[3.4]octane 2,2-dioxide] | 32 | 59 | 
14 | O=S1(=O)CC2(CCN([C@H]3CO[C@@H](c4ccc(C(F)(F)F)cc4)C3)C2)C1 (stereo in doubt) [19A*, 6-((3R,5R)-5-(4-(Trifluoromethyl)phenyl)tetrahydrofuran-3-yl)-2-thia-6-azaspiro[3.4]octane 2,2-dioxide] | 23 | 27 | 
15 | CC(C)n1nc(-c2ccc(C(F)(F)F)nc2)nc1[C@H]1CC[C@@H](N2CCC3(C2)CS(=O)(=O)C3)C1 (single isomer, unassigned) [17D*] | 3.5 | 20 | 

Source: US20240398781A1, “SPIROCYCLIC CYCLIC MODULATORS OF CHOLESTEROL BIOSYNTHESIS AND THEIR USE FOR PROMOTING REMYELINATION” (GENENTECH, INC., priority 2021, published 2024)
